This note sets out measurements from publication PMC9268414, “Screening an In-House Isoquinoline Alkaloids Library for New Blockers of Voltage-Gated Na^+ Channels Using Voltage Sensor Fluorescent Probes: Hits and Biases” (Molecules, 2022).

Experiment [1] deals with NaV channels endogenously expressed in GH3b6 cells. The experiment can be described thus: FRET voltage sensor probe (VSP) assay of BTX-induced depolarization in GH3b6 cells. It counts as cell-based, rat. Particulars: for Maximum of Inhibition of BTX-evoked VSP signal / IC50: BTX 1 µM, n = 6; for Maximum of Inhibition of BTX-evoked VSP signal: % printed only; for IC50: read-out: IC50 (µM), inhibition of BTX-evoked VSP signal; for Inhibitory Effects (%) on BTX-induced VSP signal (screening): IA at 10–50 µg/mL co-incubated with 1 µM BTX.

The target in experiment [2] is human NaV1.3 channel (Homo sapiens, UniProt Q9NY46). The experiment can be described thus: ANG-2 intracellular Na+ fluorescent assay in HEK293-hNaV1.3 cells. Particulars: for Inhibition of BTX-induced [Na+]i elevation (ANG-2 signal): IA at 10 µM, BTX 3 µM, HEK293-hNaV1.3. It counts as cell-based.
human NaV1.3 channel, sequence (Q9NY46 whole entry): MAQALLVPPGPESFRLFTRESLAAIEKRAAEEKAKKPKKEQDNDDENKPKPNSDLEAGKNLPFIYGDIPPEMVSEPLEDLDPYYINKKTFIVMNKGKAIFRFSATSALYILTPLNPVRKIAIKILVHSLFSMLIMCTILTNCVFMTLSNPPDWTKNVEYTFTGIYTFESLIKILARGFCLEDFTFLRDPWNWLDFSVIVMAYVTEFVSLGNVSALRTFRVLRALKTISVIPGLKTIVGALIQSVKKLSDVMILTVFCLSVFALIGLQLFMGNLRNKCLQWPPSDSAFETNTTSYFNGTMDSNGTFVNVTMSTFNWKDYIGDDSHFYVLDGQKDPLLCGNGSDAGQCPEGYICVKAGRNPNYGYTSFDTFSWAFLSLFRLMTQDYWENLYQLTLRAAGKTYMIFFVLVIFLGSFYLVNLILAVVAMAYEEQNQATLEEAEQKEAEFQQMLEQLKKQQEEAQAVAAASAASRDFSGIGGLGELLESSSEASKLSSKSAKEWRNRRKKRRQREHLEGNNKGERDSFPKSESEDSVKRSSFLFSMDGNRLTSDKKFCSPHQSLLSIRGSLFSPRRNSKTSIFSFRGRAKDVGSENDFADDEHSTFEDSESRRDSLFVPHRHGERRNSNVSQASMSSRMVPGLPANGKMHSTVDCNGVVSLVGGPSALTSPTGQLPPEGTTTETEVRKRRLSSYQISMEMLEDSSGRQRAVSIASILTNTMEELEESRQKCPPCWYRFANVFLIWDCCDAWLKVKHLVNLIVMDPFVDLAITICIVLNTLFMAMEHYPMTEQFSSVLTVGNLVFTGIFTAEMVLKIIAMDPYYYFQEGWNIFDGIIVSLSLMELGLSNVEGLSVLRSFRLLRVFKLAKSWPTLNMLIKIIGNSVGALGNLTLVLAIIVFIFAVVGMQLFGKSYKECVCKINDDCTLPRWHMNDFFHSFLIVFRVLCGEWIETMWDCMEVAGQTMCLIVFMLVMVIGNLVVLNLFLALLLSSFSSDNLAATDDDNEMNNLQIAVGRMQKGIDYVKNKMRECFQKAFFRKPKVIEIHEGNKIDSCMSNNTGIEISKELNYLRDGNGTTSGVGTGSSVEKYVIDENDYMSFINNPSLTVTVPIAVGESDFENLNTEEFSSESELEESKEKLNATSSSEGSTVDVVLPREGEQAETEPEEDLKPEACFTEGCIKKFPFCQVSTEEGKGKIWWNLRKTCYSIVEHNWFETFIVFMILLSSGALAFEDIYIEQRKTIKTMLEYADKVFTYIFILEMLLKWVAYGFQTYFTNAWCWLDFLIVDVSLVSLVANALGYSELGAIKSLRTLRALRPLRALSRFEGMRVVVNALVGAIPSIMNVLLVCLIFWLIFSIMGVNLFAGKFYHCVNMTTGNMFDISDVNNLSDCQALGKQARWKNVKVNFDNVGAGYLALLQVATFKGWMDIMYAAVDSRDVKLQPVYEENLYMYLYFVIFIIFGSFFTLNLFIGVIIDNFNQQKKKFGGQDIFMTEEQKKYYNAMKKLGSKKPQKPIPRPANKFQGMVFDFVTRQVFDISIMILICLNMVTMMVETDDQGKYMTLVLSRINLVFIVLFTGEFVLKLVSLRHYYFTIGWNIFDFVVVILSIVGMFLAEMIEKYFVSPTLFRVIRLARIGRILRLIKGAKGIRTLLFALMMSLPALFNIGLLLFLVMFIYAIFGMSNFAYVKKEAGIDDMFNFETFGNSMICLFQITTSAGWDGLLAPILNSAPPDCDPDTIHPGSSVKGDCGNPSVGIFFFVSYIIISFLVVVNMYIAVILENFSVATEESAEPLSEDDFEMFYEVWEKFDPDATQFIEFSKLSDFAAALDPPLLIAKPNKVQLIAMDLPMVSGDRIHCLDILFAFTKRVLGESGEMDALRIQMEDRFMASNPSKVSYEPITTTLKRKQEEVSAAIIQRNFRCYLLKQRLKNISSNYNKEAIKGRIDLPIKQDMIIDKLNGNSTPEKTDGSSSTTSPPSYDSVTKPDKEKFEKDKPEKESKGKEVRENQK
The target in experiment [3] is T1, hNaV1.2 channel (Homo sapiens, UniProt Q99250).
T1 construct: expressed in transfected cells
The experiment can be described thus: Automated patch-clamp, Na+ currents in HEK293-hNaV1.2 cells. It counts as cell-based. Particulars: 10 µM; for Effect on Na+ currents elicited by hNaV1.2: HEK293-hNaV1.2; for Change in V1/2 of activation and inactivation vs control: hNaV1.2. How it is done: (§1) GH3b6 cells are a subclone of the GH3 pituitary cell line and were a generous gift from Dr. Françoise Macari (IGF, Montpellier, France). GH3b6 cells were cultivated from passage 14 until passage 32 at 37 °C/5% CO2 in Dubelcco’s Modified Eagle Medium (DMEM)/F12 (Lonza, Basel, Switzerland), supplemented with 10% FBS (Lonza, Basel, Switzerland), 1 mM L-glutamine, and 1 mM penicillin and streptomycin solution. For the fluorescence assay, the GH3b6 cells were seeded in black-walled, clear-bottom, 96-well, tissue culture-treated, and sterile imaging plates (Corning Hazebrouck, France), at a density of 10,000 cells per well, and incubated for 24 h before starting the experiment. The human Nav1.3 (hNav1.3) channel-expressing cell line (HEK293) used in this work was a generous gift from Massimo Mantegazza (IPMC, Nice, France). HEK293-hNaV1.3 cells were cultivated from passage 20 until passage 35 at 37 °C/5% CO2 in a DMEM high glucose medium (4.5 g/l), supplemented with 10% FBS, pyruvate, L-glutamine, and penicillin and streptomycin solution, each one at 1 mM, completed with 800 µg/mL geneticin G418. For the fluorescence assays, the cells were plated at a density of 50,000 cells per well in black-walled, clear-bottom, 96-well plates and then cultured at 37 °C and 5% CO2 for 24 h before the experiments. HEK293 stably expressing hNaV1.2 and hNaV1.6 were cultivated in the same conditions mentioned above for the HEK293-hNaV1.3 cells. For the automated patch-clamp experiments, cells were passaged from 24 to 48 h prior to the experiment and replated in the appropriate quantity to reach 50–70% confluence. For electrophysiological recordings, cells were detached with trypsin-EDTA and diluted in a culture medium. Then, the cells were centrifuged at 800 rpm for 4 min and resuspended (~300,000 cells/mL) in a patch-clamp extracellular solution.
(§2) Whole-cell recordings were used to investigate the effects of oxostephanine, liriodenine, thalmiculine, bebeerine, and protopine on HEK293 cells stably expressing the hNav1.2, hNav1.3, and hNav1.6 channels. Automated patch-clamp recordings were performed using the SyncroPatch 384PE from Nanion (München, Germany). Chips with a single hole (n = 384, series resistance 3.93 ± 1.19 MΩ) were used for HEK293 cell recordings. Pulse generation and data collection were performed with the PatchControl384 v1.9.7 software (Nanion) and the Biomek interface (Beckman Coulter). Whole-cell recordings were conducted according to the recommended procedures of Nanion. The cells were stored in a cell hotel reservoir at 10 °C, with a shaking speed of 60 RPM. After initiating the experiment, cell catch, sealing, whole-cell formation, liquid application, recording, and data acquisition were all performed sequentially and automatically. The intracellular solution contained (in mM): 10 CsCl, 110 CsF, 10 NaCl, 10 EGTA, and 10 HEPES (pH 7.2, osmolarity 280 mOsm), and the extracellular solution contained (in mM): 60 NMDG, 80 NaCl, 4 KCl, 2 CaCl2, 1 MgCl2, 5 Glucose, and 10 HEPES (pH 7.4 (NaOH), osmolarity 280 ± 3 mOsm). Whole-cell experiments were performed at a holding potential of −100 mV at room temperature (18–22 °C). Currents were sampled at 20 kHz. For pharmacological assays, alkaloid solutions were prepared at 30 µM in the extracellular solution supplemented with 0.3% bovine serum albumin and distributed in 384-well compound plates according to a pre-established plate plan. This distribution within compound plates could not be randomized since it would then excessively complexify the methods of analyses. The working compound solution was diluted 3 times in the patch-clamp recording well by adding from 30 to 60 µL of the external solution to reach the final reported concentration and the test volume of 90 µL. The effects of IA (10 µM) or of BTX (1 µM) were measured at the end of a 10 min application time. Activation curves were built by depolarizations lasting for 2000 ms, from −130 mV to 40 mV, using 5 mV increment steps. […]
Background: Patch clamp records ionic current or voltage across a cell membrane.

Experiment [4] concerns the target T2, hNaV1.3 channel (Homo sapiens, UniProt Q9NY46).
T2 construct: expressed in transfected cells
As to the kind of experiment: Automated patch-clamp, Na+ currents in HEK293-hNaV1.3 cells. It counts as cell-based. Conditions: for Effect on Na+ currents elicited by hNaV1.3 / Change in V1/2 of activation and inactivation vs control: 10 µM; for Effect on Na+ currents elicited by hNaV1.3: HEK293-hNaV1.3, without BTX; for Change in V1/2 of activation and inactivation vs control: hNaV1.3. How it is done: as §1, §2

In experiment [5] the target is T3, hNaV1.6 channel (Homo sapiens, UniProt Q9UQD0).
T3 construct: expressed in transfected cells
T3 sequence (Q9UQD0 whole entry): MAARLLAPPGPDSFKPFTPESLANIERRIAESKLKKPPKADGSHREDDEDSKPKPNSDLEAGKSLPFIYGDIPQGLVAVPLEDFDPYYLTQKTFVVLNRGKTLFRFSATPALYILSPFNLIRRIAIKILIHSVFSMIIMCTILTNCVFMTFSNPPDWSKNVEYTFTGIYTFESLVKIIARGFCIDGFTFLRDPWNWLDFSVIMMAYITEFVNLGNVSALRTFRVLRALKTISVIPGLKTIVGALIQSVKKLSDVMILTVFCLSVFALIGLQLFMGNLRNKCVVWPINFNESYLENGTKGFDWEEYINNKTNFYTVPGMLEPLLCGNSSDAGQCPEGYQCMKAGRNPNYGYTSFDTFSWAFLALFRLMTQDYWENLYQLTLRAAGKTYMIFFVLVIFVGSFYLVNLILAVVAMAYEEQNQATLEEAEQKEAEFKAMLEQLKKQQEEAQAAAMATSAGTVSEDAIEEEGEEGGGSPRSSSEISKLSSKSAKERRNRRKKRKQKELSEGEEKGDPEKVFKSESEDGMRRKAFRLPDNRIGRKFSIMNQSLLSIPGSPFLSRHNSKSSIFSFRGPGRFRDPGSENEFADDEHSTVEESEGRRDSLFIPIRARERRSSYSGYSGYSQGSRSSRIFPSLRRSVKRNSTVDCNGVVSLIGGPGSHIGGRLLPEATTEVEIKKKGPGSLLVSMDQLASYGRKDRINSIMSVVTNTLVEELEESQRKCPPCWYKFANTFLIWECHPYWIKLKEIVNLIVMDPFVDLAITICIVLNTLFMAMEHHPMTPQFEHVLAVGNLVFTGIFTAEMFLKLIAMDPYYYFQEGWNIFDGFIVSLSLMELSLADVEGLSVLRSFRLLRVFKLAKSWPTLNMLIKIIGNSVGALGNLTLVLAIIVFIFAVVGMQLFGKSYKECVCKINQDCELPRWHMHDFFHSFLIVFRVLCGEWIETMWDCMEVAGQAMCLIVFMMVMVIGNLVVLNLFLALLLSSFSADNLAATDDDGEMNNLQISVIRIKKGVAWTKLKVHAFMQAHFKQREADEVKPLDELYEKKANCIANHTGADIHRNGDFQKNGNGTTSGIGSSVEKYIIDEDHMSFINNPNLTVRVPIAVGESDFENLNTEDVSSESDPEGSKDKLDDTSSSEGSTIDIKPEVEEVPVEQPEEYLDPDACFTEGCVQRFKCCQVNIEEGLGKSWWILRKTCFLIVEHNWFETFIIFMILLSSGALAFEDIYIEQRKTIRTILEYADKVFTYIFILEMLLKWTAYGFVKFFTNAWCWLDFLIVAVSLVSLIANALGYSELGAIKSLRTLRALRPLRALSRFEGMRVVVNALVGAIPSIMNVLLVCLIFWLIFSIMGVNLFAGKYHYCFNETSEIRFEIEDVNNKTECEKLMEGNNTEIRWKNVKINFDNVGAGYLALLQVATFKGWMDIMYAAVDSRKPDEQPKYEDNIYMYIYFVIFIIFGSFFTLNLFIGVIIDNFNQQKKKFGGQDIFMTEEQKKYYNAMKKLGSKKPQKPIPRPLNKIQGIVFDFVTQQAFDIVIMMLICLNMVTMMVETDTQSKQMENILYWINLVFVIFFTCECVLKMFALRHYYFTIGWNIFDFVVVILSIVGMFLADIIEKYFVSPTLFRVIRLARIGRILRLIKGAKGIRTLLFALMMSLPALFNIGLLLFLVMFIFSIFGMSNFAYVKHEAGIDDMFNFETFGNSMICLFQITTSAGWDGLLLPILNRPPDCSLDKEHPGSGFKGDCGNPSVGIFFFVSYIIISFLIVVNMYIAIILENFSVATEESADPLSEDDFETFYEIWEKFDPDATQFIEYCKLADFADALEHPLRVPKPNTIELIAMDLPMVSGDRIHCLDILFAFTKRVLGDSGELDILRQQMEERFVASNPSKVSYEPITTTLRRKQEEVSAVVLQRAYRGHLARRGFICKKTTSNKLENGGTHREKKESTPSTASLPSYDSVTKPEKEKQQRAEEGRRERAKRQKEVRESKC
As to the kind of experiment: Automated patch-clamp, Na+ currents in HEK293-hNaV1.6 cells. It counts as cell-based. Conditions: 10 µM; for Effect on Na+ currents elicited by hNaV1.6: HEK293-hNaV1.6; for Change in V1/2 of activation and inactivation vs control: hNaV1.6. Here is the method:
as §1, §2

T2 sequence (Q9NY46 whole entry): as the sequence (Q9NY46 whole entry) above

As usually defined, the IC50 is the concentration at which inhibition is half-maximal. For protopine [IA69], in experiment [1] (GH3b6 cells), the “Maximum of Inhibition of BTX-evoked VSP signal” value was 64.67 ± 5.50%, the concentration for half-maximal inhibition (IC50) was determined as 3.97 ± 0.1 µM and the “Inhibitory Effects (%) on BTX-induced VSP signal (screening)” value (from here on “Inhibitory Effects (%)”) is 99.9%. Also, the “Inhibition of BTX-induced [Na+]i elevation (ANG-2 signal)” value in experiment [2] was “no significant inhibitory effects”. For the same molecule, in experiment [3], the “Effect on Na+ currents elicited by hNaV1.2” value is “no effects”; the “Change in V1/2 of activation and inactivation vs control” value (shortened to “Change”) is reported as “ns”. Besides, in experiment [4], the “Effect on Na+ currents elicited by hNaV1.3” value was “no effects”; the “Change” value is recorded as “ns”. Also, in experiment [5], the “Effect on Na+ currents elicited by hNaV1.6” value was “no effects”; the “Change” value was “ns”.

As to `COc1ccc2c(c1OC)C(O)C1c3c(cc4c(c3-2)OCO4)CCN1C` (centres unmarked) [IA36, sukhodianine], in experiment [1] (GH3b6 cells), the “Inhibitory Effects (%)” value is 92.2%.

For the molecule thalmiculine [IA49], in experiment [1] (GH3b6 cells), the “Maximum of Inhibition of BTX-evoked VSP signal” value is recorded as 31.07 ± 4.04%, the IC50 was 0.38 ± 0.19 µM and the “Inhibitory Effects (%)” value is given as 91.1%. Besides, in experiment [2], the “Inhibition of BTX-induced [Na+]i elevation (ANG-2 signal)” value was “no significant inhibitory effects”. For the same molecule, in experiment [3], the “Effect on Na+ currents elicited by hNaV1.2” value was “no effects”; the “Change” value is “ns”. Besides, in experiment [4], the “Effect on Na+ currents elicited by hNaV1.3” value is listed as “no effects”; the “Change” value is reported as “ns”. Also, in experiment [5], the “Effect on Na+ currents elicited by hNaV1.6” value is “no effects”; the “Change” value is “ns”.

Consider `NC1=N[C@H](O)[C@H]2[C@H]3O[C@]4(O)O[C@@H]([C@@H](O)[C@@]2(N1)[C@@H]4O)[C@]3(O)CO` [TTX, tetrodotoxin, reference compound], for which, in experiment [1], the “Effect on VSP fluorescence emission ratio induced by BTX” value is “fully abolished” and the “IC50 of TTX on VSP signal ratio induced by BTX” value is reported as 8.58 ± 1.67 nM. In addition, the “Inhibition of BTX-induced ANG-2 fluorescence ratio” value in experiment [2] is 92 ± 5%.

For the molecule `Cc1c[nH]c(C)c1C(=O)OC(C)C1=CCC23OCCN(C)CC12CC(O)C12OC4(O)CCC1(C)C(CC=C32)C4` (centres unmarked) [BTX, batrachotoxin, reference compound], the “EC50 of BTX-induced VSP signal ratio” value in experiment [1] (GH3b6 cells, BTX 0.01 to 3 µM, Na+ raised to 80 mM) was 270 ± 60 nM. Moreover, in experiment [4] (BTX 1 µM, data not shown), the “Increase of the AUC of current traces (inactivation rate of hNaV1.3)” value came to 55 fold.
